Species: Rattus norvegicus
Experiment: DrugMatrix - Regimen: Daily Repeat
Format: toxicity, organism-based, Sprague-Dawley
Design: regimen Daily Repeat, gender Male, age 6-8 weeks
Details: in vivo, po, route oral GAVAGE, […]; for ABSOLUTE BASOPHIL / ABSOLUTE EOSINOPHIL / ABSOLUTE LYMPHOCYTE / ABSOLUTE MONOCYTE / ABSOLUTE SEGMENTED NEUTROPHIL / BASOPHIL / EOSINOPHIL / ERYTHROCYTE COUNT / HEMATOCRIT / HEMOGLOBIN / LEUKOCYTE COUNT / LYMPHOCYTE / MEAN CORPUSCULAR HEMOGLOBIN / MEAN CORPUSCULAR HEMOGLOBIN CONCENTRATION / MEAN CORPUSCULAR VOLUME / MONOCYTE / NEUTROPHIL / NUCLEATED RED BLOOD CELLS / PLATELET COUNT: tissue Blood; for ALANINE AMINOTRANSFERASE / ALBUMIN / ALKALINE PHOSPHATASE / ASPARTATE AMINOTRANSFERASE / BLOOD UREA NITROGEN / CARBON DIOXIDE / CHLORIDE / CHOLESTEROL / CREATINE PHOSPHOKINASE / CREATININE / GLUCOSE / LACTATE DEHYDROGENASE / LIPASE / PHOSPHORUS / POTASSIUM / SODIUM / TOTAL BILIRUBIN / TOTAL PROTEIN / URIC ACID: tissue Plasma
[1] = 47 mg/kg, 120 h, dose level Low, time 5 day
[2] = 250 mg/kg, 72 h, dose level High, time 3 day
[3] = 250 mg/kg, 120 h, dose level High, time 5 day

`CC(=O)Nc1nnc(S(N)(=O)=O)s1` [ACETAZOLAMIDE] was tested, and the “ABSOLUTE BASOPHIL” value [1] was 0 CELLS/uL, the “ABSOLUTE EOSINOPHIL” value [1] was 0 CELLS/uL and the “ABSOLUTE LYMPHOCYTE” value [1] was 10200 CELLS/uL. For the same molecule, the “ABSOLUTE MONOCYTE” value [1] was 261.33 CELLS/uL, the “ABSOLUTE SEGMENTED NEUTROPHIL” value [1] was 672 CELLS/uL and the BASOPHIL [1] was 0%. For the same molecule, the EOSINOPHIL [1] was 0%, the “ERYTHROCYTE COUNT” value [1] was 5.43 x10E6/uL and the HEMATOCRIT [1] was 33.83%. For the same molecule, the HEMOGLOBIN [1] was 13.43 G/DL, the “LEUKOCYTE COUNT” value [1] was 11.13 x10E3/uL and the LYMPHOCYTE [1] was 91.67%. The “MEAN CORPUSCULAR HEMOGLOBIN” value [1] was 24.73 pg, the “MEAN CORPUSCULAR HEMOGLOBIN CONCENTRATION” value [1] was 39.7 G/DL and the “MEAN CORPUSCULAR VOLUME” value [1] was 62.3 fL. For the same molecule, the MONOCYTE [1] was 2.33%, the NEUTROPHIL [1] was 6% and the “NUCLEATED RED BLOOD CELLS” value [1] was 0.33 /100WBC. The “PLATELET COUNT” value [1] was 1186.33 x10E3/uL, the “ALANINE AMINOTRANSFERASE” value [1] was 60.33 u/L and the ALBUMIN [1] was 4.07 G/DL. The “ALKALINE PHOSPHATASE” value [1] was 448.67 u/L, the “ASPARTATE AMINOTRANSFERASE” value [1] was 74.67 u/L and the “BLOOD UREA NITROGEN” value [1] was 14 mg/dL. For the same molecule, the “CARBON DIOXIDE” value [1] was 27.67 mmol/L, the CHLORIDE [1] was 104 MEQ/L and the CHOLESTEROL [1] was 61.33 mg/dL. For the same molecule, the “CREATINE PHOSPHOKINASE” value [1] was 271.67 u/L, the CREATININE [1] was 0.14 mg/dL and the GLUCOSE [1] was 155 mg/dL. For the same molecule, the “LACTATE DEHYDROGENASE” value [1] was 142 u/L, the LIPASE [1] was 10.33 u/L and the PHOSPHORUS [1] was 9.17 mg/dL. The POTASSIUM [1] was 5.17 MEQ/L, the SODIUM [1] was 145.83 MEQ/L and the “TOTAL BILIRUBIN” value [1] was 0.23 mg/dL. The “TOTAL PROTEIN” value [1] was 6.07 G/DL, the “URIC ACID” value [1] was 0.33 mg/dL and the “ABSOLUTE BASOPHIL” value [2] was 0 CELLS/uL. The “ABSOLUTE EOSINOPHIL” value [2] was 0 CELLS/uL, the “ABSOLUTE LYMPHOCYTE” value [2] was 8200.33 CELLS/uL and the “ABSOLUTE MONOCYTE” value [2] was 117.33 CELLS/uL. For the same molecule, the “ABSOLUTE SEGMENTED NEUTROPHIL” value [2] was 382.33 CELLS/uL, the BASOPHIL [2] was 0% and the EOSINOPHIL [2] was 0%. The “ERYTHROCYTE COUNT” value [2] was 5.26 x10E6/uL, the HEMATOCRIT [2] was 32.4% and the HEMOGLOBIN [2] was 12.8 G/DL. The “LEUKOCYTE COUNT” value [2] was 8.7 x10E3/uL, the LYMPHOCYTE [2] was 94.33% and the “MEAN CORPUSCULAR HEMOGLOBIN” value [2] was 24.33 pg. For the same molecule, the “MEAN CORPUSCULAR HEMOGLOBIN CONCENTRATION” value [2] was 39.5 G/DL, the “MEAN CORPUSCULAR VOLUME” value [2] was 61.57 fL and the MONOCYTE [2] was 1.33%. The NEUTROPHIL [2] was 4.33%, the “NUCLEATED RED BLOOD CELLS” value [2] was 0 /100WBC and the “PLATELET COUNT” value [2] was 1163 x10E3/uL. The “ALANINE AMINOTRANSFERASE” value [2] was 77 u/L, the ALBUMIN [2] was 3.83 G/DL and the “ALKALINE PHOSPHATASE” value [2] was 352.67 u/L. The “ASPARTATE AMINOTRANSFERASE” value [2] was 83.67 u/L, the “BLOOD UREA NITROGEN” value [2] was 11.67 mg/dL and the “CARBON DIOXIDE” value [2] was 29.67 mmol/L. The CHLORIDE [2] was 101.67 MEQ/L, the CHOLESTEROL [2] was 73.33 mg/dL and the “CREATINE PHOSPHOKINASE” value [2] was 296.33 u/L. For the same molecule, the CREATININE [2] was 0.37 mg/dL, the GLUCOSE [2] was 157 mg/dL and the “LACTATE DEHYDROGENASE” value [2] was 154 u/L. The LIPASE [2] was 11.33 u/L, the PHOSPHORUS [2] was 9.67 mg/dL and the POTASSIUM [2] was 4.85 MEQ/L. The SODIUM [2] was 144.27 MEQ/L, the “TOTAL BILIRUBIN” value [2] was 0.2 mg/dL and the “TOTAL PROTEIN” value [2] was 5.67 G/DL. The “URIC ACID” value [2] was 0.33 mg/dL, the “ABSOLUTE BASOPHIL” value [3] was 0 CELLS/uL and the “ABSOLUTE EOSINOPHIL” value [3] was 64 CELLS/uL. For the same molecule, the “ABSOLUTE LYMPHOCYTE” value [3] was 8180.67 CELLS/uL, the “ABSOLUTE MONOCYTE” value [3] was 154.33 CELLS/uL and the “ABSOLUTE SEGMENTED NEUTROPHIL” value [3] was 767.67 CELLS/uL. For the same molecule, the BASOPHIL [3] was 0%, the EOSINOPHIL [3] was 0.67% and the “ERYTHROCYTE COUNT” value [3] was 5.67 x10E6/uL. For the same molecule, the HEMATOCRIT [3] was 35.23%, the HEMOGLOBIN [3] was 13.9 G/DL and the “LEUKOCYTE COUNT” value [3] was 9.17 x10E3/uL. For the same molecule, the LYMPHOCYTE [3] was 89.33%, the “MEAN CORPUSCULAR HEMOGLOBIN” value [3] was 24.53 pg and the “MEAN CORPUSCULAR HEMOGLOBIN CONCENTRATION” value [3] was 39.47 G/DL. The “MEAN CORPUSCULAR VOLUME” value [3] was 62.1 fL, the MONOCYTE [3] was 1.67% and the NEUTROPHIL [3] was 8.33%. For the same molecule, the “NUCLEATED RED BLOOD CELLS” value [3] was 0 /100WBC, the “PLATELET COUNT” value [3] was 1233.67 x10E3/uL and the “ALANINE AMINOTRANSFERASE” value [3] was 59 u/L. The ALBUMIN [3] was 4.03 G/DL, the “ALKALINE PHOSPHATASE” value [3] was 354.67 u/L and the “ASPARTATE AMINOTRANSFERASE” value [3] was 71 u/L. For the same molecule, the “BLOOD UREA NITROGEN” value [3] was 15 mg/dL, the “CARBON DIOXIDE” value [3] was 23.33 mmol/L and the CHLORIDE [3] was 109.33 MEQ/L. The CHOLESTEROL [3] was 66 mg/dL, the “CREATINE PHOSPHOKINASE” value [3] was 397 u/L and the CREATININE [3] was 0.18 mg/dL. The GLUCOSE [3] was 141.67 mg/dL, the “LACTATE DEHYDROGENASE” value [3] was 111.33 u/L and the LIPASE [3] was 10.33 u/L. It also gave a PHOSPHORUS [3] of 8.57 mg/dL, a POTASSIUM [3] of 5.2 MEQ/L and an SODIUM [3] of 146 MEQ/L. The “TOTAL BILIRUBIN” value [3] was 0.17 mg/dL, the “TOTAL PROTEIN” value [3] was 6.1 G/DL and the “URIC ACID” value [3] was 0.53 mg/dL.
